# Patent US7799797B2, “Arylsulfonyl naphthalene derivatives and uses thereof” (Roche Palo Alto LLC, priority 2006, dated 2010)
# Key:
# [1] = target: T1, recombinant human 5-HT2A receptor (Homo sapiens, UniProt P28223); assay: Radioligand binding, [3H]Ketanserin competition in CHO-K1 cell membranes; conditions: [3H]Ketanserin displacement, pH 7.4, 32° C., read-out: pKi for 5-HT2A (converted)
# T1 construct: expressed in transfected cells
# Experimental: (§1) The binding activity of compounds of this invention in vitro was determined as follows. Duplicate determinations of 5-HT6 ligand affinity were made by competing for binding of [^3H]LSD in cell membranes derived from HEK293 cells stably expressing recombinant human 5-HT6 receptor. Duplicate determinations of 5-HT2A ligand affinity were made by competing for binding of [^3H]Ketanserin (3-(2-(4-(4-fluorobenzoyl)piperidinol)ethyl)-2,4(1H, 3H)-quinazolinedione) in cell membranes derived from CHO-K1 cells stably expressing recombinant human 5-HT2A receptor. Membranes were prepared from HEK 293 cell lines by the method described by Monsma et al., Molecular Pharmacology, Vol. 43 pp. 320-327 (1993), and from CHO-K1 cell lines as described by Bonhaus et al., Br J. Pharmacol. June; 115(4):622-8 (1995).
# (§2) For estimation of affinity at the 5-HT6 receptor, all determinations were made in assay buffer containing 50 mM Tris-HCl, 10 mM MgSO4, 0.5 mM EDTA, 1 mM ascorbic acid, pH 7.4 at 37° C., in a 250 microliter reaction volume. […]
# (§3) Assay tubes containing [^3H] […] LSD or [^3H]Ketanserin were determined as radioactive counts per minute using Packard TopCount.
# (§4) Displacement of [^3H]LSD or [^3H]Ketanserin from the binding sites was quantified by fitting concentration-binding data to a 4-parameter logistic equation: […]
# [2] = target: T2, recombinant human 5-HT6 receptor (Homo sapiens, UniProt P50406); assay: Radioligand binding, [3H]LSD competition in HEK293 cell membranes; conditions: [3H]LSD displacement, pH 7.4, 37° C., read-out: pKi for 5-HT6 (converted)
# T2 construct: expressed in transfected cells
# Experimental: as §1, §2, §3, §4
# T2 sequence (P50406 whole entry): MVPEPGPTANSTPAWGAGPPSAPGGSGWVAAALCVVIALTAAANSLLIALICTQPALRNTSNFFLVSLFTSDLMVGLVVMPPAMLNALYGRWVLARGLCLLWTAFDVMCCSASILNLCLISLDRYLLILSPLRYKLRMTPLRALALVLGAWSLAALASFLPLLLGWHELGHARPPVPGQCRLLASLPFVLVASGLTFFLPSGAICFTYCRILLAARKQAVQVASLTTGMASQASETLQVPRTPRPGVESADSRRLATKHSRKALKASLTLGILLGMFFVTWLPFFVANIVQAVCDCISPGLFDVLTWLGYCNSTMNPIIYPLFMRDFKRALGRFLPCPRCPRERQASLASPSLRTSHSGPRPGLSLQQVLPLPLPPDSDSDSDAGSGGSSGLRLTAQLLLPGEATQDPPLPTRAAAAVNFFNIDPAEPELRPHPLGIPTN
# T1 sequence (P28223 whole entry): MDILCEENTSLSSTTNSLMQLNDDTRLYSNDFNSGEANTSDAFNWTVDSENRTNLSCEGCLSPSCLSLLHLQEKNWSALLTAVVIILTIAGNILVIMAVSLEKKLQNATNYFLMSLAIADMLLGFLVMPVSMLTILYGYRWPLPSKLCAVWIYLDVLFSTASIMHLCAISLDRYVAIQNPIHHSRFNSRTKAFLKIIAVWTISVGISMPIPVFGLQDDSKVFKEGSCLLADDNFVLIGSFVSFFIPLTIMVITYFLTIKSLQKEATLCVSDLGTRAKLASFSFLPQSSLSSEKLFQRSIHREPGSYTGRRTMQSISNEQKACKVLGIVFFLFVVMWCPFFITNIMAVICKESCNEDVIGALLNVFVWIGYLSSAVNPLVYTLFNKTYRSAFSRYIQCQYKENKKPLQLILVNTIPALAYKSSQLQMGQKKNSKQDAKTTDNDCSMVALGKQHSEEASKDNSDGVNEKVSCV
Ki [1] [nM],Ki [2] [nM],SMILES
~5.01,–,"NCc1cccc2cc(S(=O)(=O)c3cccc(F)c3)ccc12 [Compound 2, C-[6-(3-Fluoro-benzenesulfonyl)-naphthalen-1-yl]-methylamine]"
–,~0.447,"CNCc1cccc2cc(S(=O)(=O)c3ccccc3)ccc12 [Compound 1, (6-Benzenesulfonyl-naphthalen-1-ylmethyl)-methyl-amine]"
